Source: patent US20230094545A1, “S1P RECEPTOR MODULATORS” (AKAAL PHARMA PTY LTD, priority 2020, published 2023)
Where “and” joins values, the source holds several entries; their conditions need not be identical. Equal entries are not always repeated.

Assays:
[1] = 8 mg daily oral dosing for 7 days in healthy human subjects: systemic exposure, lymphocyte counts; type: in vivo
Description: One cohort (8 human subjects) was treated daily with 8 mg oral dosing for 7 consecutive days.

[2] = Systemic exposure in human subjects after topical application; settings: in vivo
Excerpt: The medicaments according to the present disclosure may contain from about 0.05% to about 10% by weight, or from about 0.5% to about 10% by weight, preferably from about 1.0 to about 4.5% by weight or preferably from about 1.5 to about 4.5% by weight, of the S1P receptor modulator. […] The dose of the S1P receptor modulator used in the treatment of the aforementioned disorders will vary in the usual way with the seriousness of the disorders, the weight of the sufferer, and other similar factors. In preferred embodiments, the medicament is applied to 100 cm^2 of body surface area per 1 g of medicament, up to 1000 cm^2 of body surface area per 1 g of medicament. The medicament can be applied such that the standard daily therapeutic dosage of active compound is ≤3 g. The topical dose level and strength of dose formulation with the compound of formula (I) may be extended to higher levels without risk of bradycardia and lymphopenia. For example, dose levels of medicaments according to the methods of the present disclosure may include up to: • 1. 10 g daily dose of up to 30% ww strength formulation with 1 g up to 300 cm^2 surface area • 2. 10 g daily dose of up to 30% ww strength formulation with 1 g up to 1000 cm2 surface area • 3. 100 g daily dose of up to 3% ww strength formulation with 1 g up to 300 cm^2 surface area • 4. 100 g daily dose of up to 3% ww strength formulation with 1 g up to 1000 cm2 surface area • 5. 300 g daily dose of up to 1% ww strength formulation with 1 g up to 300 cm^2 surface area. • 6. 300 g daily dose of up to 1% ww strength formulation with 1 g up to 1000 cm^2 surface area
The body surface area of an adult is around 16,000 cm^2 to 18,000 cm^2 and the skin surface area varies from 10,000 cm^2 to 20,000 cm^2 (https://hypertextbook.com/facts/2001/IgorFridman.shtml, and references cited within). Human subjects received a topical application of 1 g of 3% by weight formulation per 150 cm^2 of body surface area (over the skin) twice daily for 21 days. The resulting systemic exposure was approximately 2.2 ng/ml.

[3] = tested on: atopic dermatitis and psoriasis disease models; assay: Atopic dermatitis and psoriasis disease models, cytokines; settings: in vivo
[4] = Systemic exposure and lymphopenia in mice; type: in vivo
excision wound = assay: Animal model of excision wound; type: in vivo, Wistar rats; settings: 3% w/w ointment, 0.20 g/animal wound, topically twice daily
Description: Two groups with six Wistar rats in each group were anaesthetized with a dose of 80 mg/kg of ketamine (i.p.) and the back of the animals were shaved. One excision wound was inflicted by cutting away (with a sterile scalpel) a 600-700 mm^2 section of the full thickness of the skin from a predetermined area. The wound was left undressed to the open environment. Group 1 rats were untreated and served as sham control. Group 2 animals were treated with a compound of Formula I in an ointment formulation (3% w/w). The ointment (0.20 g/animal wound) was applied topically twice daily.

[5] = individual healthy human subjects, 8 mg oral daily for 7 days, listed as compound of formula (1)

In the case of `CCCOc1ccc(-c2nc(-c3ccc4oc(C(N)(CO)CO)cc4c3)no2)cc1Cl` [compound of formula (I)], the bradycardia and lymphopenia ([1]; 2 g daily topical 3% ww for 3 weeks and oral 8 mg daily for one week) is reported as “without event of bradycardia and significant lymphopenia”, the concentration at 7 days ([1]; human, in vivo, po, 8 mg daily, humans, 8 mg oral daily for 7 days) is reported as ~53 ng/mL and the measured lymphopenia ([1]; humans, 8 mg daily dosing for one week) is reported as “up to 40%”. For the same compound, the lymphopenia ([1]; humans, 8 mg oral daily for 7 consecutive days) was “mild lymphopenia”, the “systemic exposure (mean / average)” value ([1]; humans, 8 mg oral daily for 7 days) was 53.3 ng/mL and the “ALC Change (%)” value [1, 5] was −33.33% and −27.66% and −35.71% and 0% and +40% and −22.58% and −15.56% and −20%. For the same compound, the “CD3 Change (%)” value [1, 5] was −18.75% and −30.32% and −30.58% and −0.6% and −12.58% and −5.77% and −12.36% and −11.86%, the “CD4 Change (%)” value [1, 5] was −22.41% and −33.62% and −32% and −5.2% and −10.91% and −8.21% and −25.3% and −7.87% and the “CD8 Change (%)” value [1, 5] was −19.05% and −27.87% and −31.74% and −1.67% and −13.79% and 0% and −7.06% and −11.86%. The concentration at 3 weeks ([2]; 2 g daily of 3% ww formulation, 2 g daily topical 3% ww formulation for 3 weeks) was ~2.5 ng/mL, the concentration at 21 days ([2]; topical, 1 g of 3% by weight formulation per 150 cm^2, 1 g of 3% by weight formulation per 150 cm2 twice daily for 21 days) was ~2.2 ng/mL and the concentration at 1 week ([2]; topical, 2 g of 3% or 6% by weight formulation (60 mg or 120 mg) over the joint area for one week) was ≤ 2.5 ng/mL. For the same compound, the “cytokines IL17, IL23, IL2” value [3] was “downregulates the cytokines IL17, IL23, IL2”, the measured lymphopenia ([4]; 0.3 mg/kg, 6 hours post dose) was 40% and the systemic exposure ([4]; dose of 0.3 mg/kg) was 6.36 ng/mL. The wound healing (excision wound) was “did not inhibit or impair the wound healing”.
